Measurements: patent publication US11052065B2, “Compositions and methods for treating cancer with a combination of programmed death receptor (PD-1) antibodies and a CXCR2 antagonist” (Merck Sharp & Dohme Corp., priority 2017, dated 2021)

System: B16-F10 melanoma tumor
Assay: Anti-tumor efficacy in mouse B16-F10 melanoma syngeneic tumor model
Assay type: in vivo, C57Bl/6 mice
Conditions: single agent treatment groups (navarixin 300 mg/kg bid + isotype control; anti-PD-1 10 mg/kg + vehicle); 12 mice per group; FIGS. 3 and 4
Method: The combination anti-tumor efficacy of a CXCR2 antagonist and anti-mouse PD-1 antibody muDX400 was assessed in the B16-F10 melanoma tumor model, syngeneic to the C57Bl/6 strain. This experiment compared the anti-tumor response of tumor-bearing mice to treatment with one of three regimens: monotherapy with a murine anti-mouse PD-1 monoclonal antibody (Anti-PD-1), monotherapy with a CXCR2 antagonist (navarixin) and combination therapy with these two agents administered concurrently.
Tumor-bearing mice for this study were initiated by implanting 0.4×10^6 log-phase and sub-confluent B16-F10 cells on the right lower dorsal flank of 7-8 week old female C57Bl/6 mice with an average body weight of 18 grams. When the mean tumor volume in these mice reached ˜70 cubic mm (50 mm^3-80 mm^3), the tumor-bearing mice were randomized to 5 treatment groups of 12 mice per group:
(1) Isotype Control+Vehicle;
(2) Isotype Control+Navarixin (bid);
(4) Anti-PD-1+Navarixin (bid) and;
(5) Anti-PD-1+Navarixin (qd).
The monoclonal antibody against murine PD-1 was of the isotype IgG1. The isotype control was a mouse monoclonal antibody specific for adenoviral hexon 25 and was of the isotype IgG1. […] The tumor volume was assessed using Vernier calipers.

In the case of `CC[C@@H](Nc1c(Nc2cccc(C(=O)N(C)C)c2O)c(=O)c1=O)c1ccc(C)o1` [navarixin, 2-hydroxy-N,N-dimethyl-3-{2-[[(R)-1-(5-methylfuran-2-yl)propyl]amino]-3,4-dioxocyclobut-1-enylamino}benzamide], the “complete and partial regressions” value is reported as “not observed”.
